{"source": "patent US11779600B2", "about": "“Methods of treating or preventing alzheimer's disease and associated conditions” (CEDARS-SINAI MEDICAL CENTER, priority 2016, dated 2023)", "key": {"[1]": {"system": "iNOS", "assay": "iNOS expression in macrophages by quantitative ICC", "assay_type": "cell-based, mouse", "details": "24 hours treatment, then fAβ1-42 for 30 min; quantitative ICC (FIG. 16D)", "procedure": "To test amyloid-β phagocytosis by macrophage, in repeated experiments monocytes were isolated from the bone marrow of wild-type mice (n=18 mice) and differentiated into macro-phage by 7-day cultivation in complete RPMI-1640 medium (#21870; Life Technologies) with 10% serum and 20 ng/ml MCSF (#315-02; PeproTech). Bone marrow-derived macrophages (MΦBM) were generated from femurs and tibiae cultured for 6-7 days in complete RPMI 1640 medium (Life Technologies) with 10% FBS, 100 U/ml penicillin, 100 μg/ml streptomycin, 2 mM L-glutamine and 20 ng/ml MCSF (PeproTech). Primary cultures of macrophage were then plated at 1.2×10^5 cells per well (3-4 wells for each condition) in 24-well tissue-culture plates on glass cover-slips overnight. […] The fluorescent signal and its total area were determined and quantified by the conversion of individual images to greyscale and standardizing to baseline using histogram-based thresholds with NIH ImageJ software. […]\nThe expression of inducible nitric oxide synthase (iNOS), a hallmark of the proinflammatory M1 macrophage phenotype, in different treatment groups was assessed next (FIG. 16C-16D). […] Quantitative ICC assays confirmed a significant ˜1.3-fold increase in iNOS expression by minocycline-treated macrophages, and a substantial 48% reduction in Aβ^1-42 phagocytosis. […]"}, "[2]": {"system": "OPN", "assay": "Western blot of OPN and its MMP-cleaved fragments in macrophages", "assay_type": "cell-based, mouse", "details": "Western blot band density (FIG. 16I-16J)", "procedure": "MΦ^BM were lifted from each cell by 2 mM EDTA-PBS, collected in an Eppendorf tube, and centrifuged. Cell pellets were lysed in RIPA buffer (Thermo Scientific) and supplemented with a cocktail of protease inhibitors (Thermo Scientific). Protein concentration was determined using a BCA Protein Assay Kit (Thermo Scientific). Aliquots of protein samples were electrophoretically separated using 4-12% Bis-Tris gels (Invitrogen), then transferred to nitrocellulose membranes, blocked in Tris-buffered saline (TBS) containing 5% (w/v) non-fat dry milk, and hybridized with appropriate primary antibodies, including rabbit polyclonal OPN (Abcam), goat polyclonal OPN (R&D systems), and Actin (Abcam). Membranes were then incubated with the appropriate HRP-conjugated secondary antibody prior to development with chemiluminescent substrates. Densitometric analysis of blots was conducted using ImageJ software, and each experimental sample was normalized to Actin.\nNext, MMP-9 expression and OPN proteolytic fragments were analyzed. […] OPN is a known substrate for MMPs (including MMP-9). A detailed analysis of OPN expression in macrophages was performed using a polyclonal antibody recognizing full-length OPN and its MMP-cleaved fragments, including the 32 kD form. […] Remarkably, the MMP-generated 32kD C-terminus-containing peptide was elevated 12-fold after GA treatment. […]"}}}
{"substance": "glatiramer acetate [GA]", "values": [{"measurement": "reduction of iNOS production", "setting": "[1]", "result": 28, "unit": "%"}, {"measurement": "elevation of MMP-generated 32kD C-terminus-containing OPN peptide", "setting": "[2]", "result": 12, "unit": "fold"}]}
